Measurements taken from patent EP0048613B1, “4-0-Substituted -2-deoxystreptamine aminoglycoside derivatives, their preparation and formulations containing them” (ELI LILLY AND COMPANY, priority 1980, dated 1982).
In brackets after ≈: the same amount, converted by molar mass. Like-named read-outs stand apart in the source and are kept apart here.

What was measured:
B. subtilis X12 = experiment: Bioautography of thin layer chromatography plate; type: cell-based; conditions: bioautography of TLC plate of the reaction mixture against B. subtilis X12
Procedure: Apramycin (54 mg, 0.1 mmol) was dissolved in water (1 ml). Nickel acetate tetrahydrate (100 mg, 0.4 mmol) was added and this solution was diluted with dimethylformamide (5 mi). The mixture was treated with 1-iodo-n-butane (0.115 ml, 1 mmol) and this reaction mixture was stirred at room temperature for 4 days.

[1] = tested on: Bordetella bronchiseptica 16; experiment: MIC, standard agar dilution test; type: cell-based; conditions: read-out: Minimum inhibitory concentration
Source text: (§1) The antibacterial activity of the deprotected compounds of this invention is illustrated by the following in vitro and in vivo test data obtained with representative compounds. In Table I, the minimum inhibitory concentration (MIC) for representative compounds against a wide range of gram-positive and gram-negative bacteria is presented. The MIC values were obtained by the standard agar dilution test.

[2] = tested on: Citrobacter freundii CF17; experiment: MIC, standard agar dilution test; type: cell-based; conditions: read-out: Minimum inhibitory concentration
Source text: as §1

[3] = tested on: Enterobacter aerogenes C32; experiment: MIC, standard agar dilution test; type: cell-based; conditions: Klebsiella aerogenes, read-out: Minimum inhibitory concentration
Source text: as §1

[4] = tested on: Enterobacter aerogenes EB17; experiment: MIC, standard agar dilution test; type: cell-based; conditions: Klebsiella aerogenes, read-out: Minimum inhibitory concentration
Source text: as §1

[5] = tested on: Enterobacter aerogenes X68; experiment: MIC, standard agar dilution test; type: cell-based; conditions: Klebsiella aerogenes, read-out: Minimum inhibitory concentration
Source text: as §1

[6] = tested on: Enterobacter cloacae 265A; experiment: MIC, standard agar dilution test; type: cell-based; conditions: read-out: Minimum inhibitory concentration
Source text: as §1

Enterobacter cloacae EB5 = experiment: MIC, standard agar dilution test; type: cell-based; conditions: read-out: Minimum inhibitory concentration
Source text: as §1

Escherichia coli EC14 = experiment: MIC, standard agar dilution test; type: cell-based; conditions: read-out: Minimum inhibitory concentration
Source text: as §1

Escherichia coli N10 = experiment: MIC, standard agar dilution test; type: cell-based; conditions: read-out: Minimum inhibitory concentration
Source text: as §1

Escherichia coli TEM = experiment: MIC, standard agar dilution test; type: cell-based; conditions: Escherichia coli, read-out: Minimum inhibitory concentration
Source text: as §1

Hemophilus influenzae 76 = experiment: MIC, standard agar dilution test; type: cell-based; conditions: Haemophilus influenzae, read-out: Minimum inhibitory concentration
Source text: as §1

[7] = tested on: Hemophilus influenzae C.L.; experiment: MIC, standard agar dilution test; type: cell-based; conditions: Haemophilus influenzae, read-out: Minimum inhibitory concentration
Source text: as §1

[8] = tested on: Klebsiella pneumoniae KAE; experiment: MIC, standard agar dilution test; type: cell-based; conditions: read-out: Minimum inhibitory concentration
Source text: as §1

[9] = tested on: Klebsiella pneumoniae X26; experiment: MIC, standard agar dilution test; type: cell-based; conditions: read-out: Minimum inhibitory concentration
Source text: as §1

Proteus inconstans PR33 = experiment: MIC, standard agar dilution test; type: cell-based; conditions: Providencia alcalifaciens, read-out: Minimum inhibitory concentration
Source text: as §1

Proteus morganii PR15 = experiment: MIC, standard agar dilution test; type: cell-based; conditions: Morganella morganii, read-out: Minimum inhibitory concentration
Source text: as §1

Proteus rettgeri C24 = experiment: MIC, standard agar dilution test; type: cell-based; conditions: Providencia rettgeri, read-out: Minimum inhibitory concentration
Source text: as §1

Proteus rettgeri PR7 = experiment: MIC, standard agar dilution test; type: cell-based; conditions: Providencia rettgeri, read-out: Minimum inhibitory concentration
Source text: as §1

[10] = tested on: Pseudomonas aeruginosa Ps18; experiment: MIC, standard agar dilution test; type: cell-based; conditions: read-out: Minimum inhibitory concentration
Source text: as §1

[11] = tested on: Pseudomonas aeruginosa X239; experiment: MIC, standard agar dilution test; type: cell-based; conditions: read-out: Minimum inhibitory concentration
Source text: as §1

[12] = tested on: Pseudomonas aeruginosa X528; experiment: MIC, standard agar dilution test; type: cell-based; conditions: read-out: Minimum inhibitory concentration
Source text: as §1

[13] = tested on: Salmonella heidelberg X514; experiment: MIC, standard agar dilution test; type: cell-based; conditions: Salmonella enterica, read-out: Minimum inhibitory concentration
Source text: as §1

[14] = tested on: Salmonella typhimurium 1335; experiment: MIC, standard agar dilution test; type: cell-based; conditions: Salmonella enterica, read-out: Minimum inhibitory concentration
Source text: as §1

Serratia marcescens SE3 = experiment: MIC, standard agar dilution test; type: cell-based; conditions: read-out: Minimum inhibitory concentration
Source text: as §1

Serratia marcescens X99 = experiment: MIC, standard agar dilution test; type: cell-based; conditions: read-out: Minimum inhibitory concentration
Source text: as §1

Shigella sonnei N9 = experiment: MIC, standard agar dilution test; type: cell-based; conditions: read-out: Minimum inhibitory concentration
Source text: as §1

[15] = tested on: Staphylococcus aureus S13E; experiment: MIC, standard agar dilution test; type: cell-based; conditions: Staphylococcus aureus, S13E, read-out: Minimum inhibitory concentration
Source text: as §1

[16] = tested on: Staphylococcus aureus V41; experiment: MIC, standard agar dilution test; type: cell-based; conditions: read-out: Minimum inhibitory concentration
Source text: as §1

[17] = tested on: Staphylococcus aureus X1.1; experiment: MIC, standard agar dilution test; type: cell-based; conditions: read-out: Minimum inhibitory concentration
Source text: as §1

[18] = tested on: Staphylococcus aureus X400; experiment: MIC, standard agar dilution test; type: cell-based; conditions: read-out: Minimum inhibitory concentration
Source text: as §1

[19] = tested on: Staphylococcus epidermidis EPI1; experiment: MIC, standard agar dilution test; type: cell-based; conditions: Staphylococcus epidermidis, EPI1; read-out: Minimum inhibitory concentration
Source text: as §1

[20] = tested on: Staphylococcus epidermidis EPI2; experiment: MIC, standard agar dilution test; type: cell-based; conditions: read-out: Minimum inhibitory concentration
Source text: as §1

[21] = tested on: Streptococcus group D 9960; experiment: MIC, standard agar dilution test; type: cell-based; conditions: D9960, read-out: Minimum inhibitory concentration
Source text: as §1

[22] = tested on: Streptococcus group D X66; experiment: MIC, standard agar dilution test; type: cell-based; conditions: DX66, read-out: Minimum inhibitory concentration
Source text: as §1

[23] = tested on: Streptococcus pneumoniae Park I; experiment: MIC, standard agar dilution test; type: cell-based; conditions: Streptococcus pneumoniae; read-out: Minimum inhibitory concentration
Source text: as §1

[24] = tested on: Streptococcus pyogenes C203; experiment: MIC, standard agar dilution test; type: cell-based; conditions: read-out: Minimum inhibitory concentration
Source text: as §1

[25] = tested on: Staphylococcus aureus 3055; experiment: Subcutaneous therapy of experimental bacterial infection in mice; type: in vivo; conditions: Staphylococcus aureus, 3055, sc, subcutaneous doses at 1 and 5 hours post infection, read-out: Effective dose (ED50)
Procedure: Table II illustrates the effective dose (ED50, effective dose to protect 50 percent of the test animals) for representative compounds of this invention against an experimental bacterial infection in mice.
The EDso values were determined as described by W. E. Wick et al., Journal of Bacteriology, 81 [No. 2], 233-235 (1961).

Molecule	zone of inhibition (B. subtilis X12)	MIC [1] [µg/mL]	MIC [2] [µg/mL]	MIC [3] [µg/mL]	MIC [4] [µg/mL]	MIC [5] [µg/mL]	MIC [6] [µg/mL]	MIC (Enterobacter cloacae EB5) [µg/mL]	MIC (Escherichia coli EC14) [µg/mL]	MIC (Escherichia coli N10) [µg/mL]	MIC (Escherichia coli TEM) [µg/mL]	MIC (Hemophilus influenzae 76) [µg/mL]	MIC [7] [µg/mL]	MIC [8] [µg/mL]	MIC [9] [µg/mL]	MIC (Proteus inconstans PR33) [µg/mL]	MIC (Proteus morganii PR15) [µg/mL]	MIC (Proteus rettgeri C24) [µg/mL]	MIC (Proteus rettgeri PR7) [µg/mL]	MIC [10] [µg/mL]	also measured
2'-N-(n-Butyl)apramycin [Example 6]	a zone of inhibition	–	–	–	–	–	–	–	–	–	–	–	–	–	–	–	–	–	–	–	–
2'-N-Allylapramycin [Example 8]	a good zone of inhibition	–	–	–	–	–	–	–	–	–	–	–	–	–	–	–	–	–	–	–	–
2'-N-Benzylapramycin [Example 7]	a zone of inhibition	–	–	–	–	–	–	–	–	–	–	–	–	–	–	–	–	–	–	–	–
CNC1C(OC2OC(CO)C(N)C(O)C2O)OC2CC(NC(=O)C(O)CCN)C(OC3C(N)CC(N)C(O)C3O)OC2C1O (stereo not drawn) [Test compound 1, 2′-N-(S-γ-Amino-α-hydroxybutyryl)apramycin]	–	128 (≈ 200 µM)	32 (≈ 49.9 µM)	16 (≈ 25 µM)	16 (≈ 25 µM)	16 (≈ 25 µM)	64 (≈ 99.9 µM)	32 (≈ 49.9 µM)	32 (≈ 49.9 µM)	16 (≈ 25 µM)	8 (≈ 12.5 µM)	32 (≈ 49.9 µM)	64 (≈ 99.9 µM)	16 (≈ 25 µM)	8 (≈ 12.5 µM)	16 (≈ 25 µM)	128 (≈ 200 µM)	16 (≈ 25 µM)	8 (≈ 12.5 µM)	128 (≈ 200 µM)	MIC [11]: 64 µg/mL (≈ 99.9 µM); MIC [12]: 128 µg/mL (≈ 200 µM); MIC [13]: 32 µg/mL (≈ 49.9 µM); MIC [14]: 16 µg/mL (≈ 25 µM); MIC (Serratia marcescens SE3): 32 µg/mL (≈ 49.9 µM); MIC (Serratia marcescens X99): 16 µg/mL (≈ 25 µM); MIC (Shigella sonnei N9): 32 µg/mL (≈ 49.9 µM); MIC [15]: 16 µg/mL (≈ 25 µM); MIC [16]: 32 µg/mL (≈ 49.9 µM); MIC [17]: 16 µg/mL (≈ 25 µM); MIC [18]: 64 µg/mL (≈ 99.9 µM); MIC [19]: 16 µg/mL (≈ 25 µM); MIC [20]: 4 µg/mL (≈ 6.24 µM); MIC [21]: > 128 µg/mL; MIC [22]: > 128 µg/mL; MIC [23]: 32 µg/mL (≈ 49.9 µM); MIC [24]: 32 µg/mL (≈ 49.9 µM); ED50 ([25]; challenged with 68.1 LD50's): 6.5 mg/kg
CNC1C(OC2OC(CO)C(N)C(O)C2O)OC2CC(NC(=O)CN)C(OC3C(N)CC(N)C(O)C3O)OC2C1O (stereo not drawn) [Test compound 3, 2′-N-Glycylapramycin]	–	128 (≈ 215 µM)	64 (≈ 107 µM)	16 (≈ 26.8 µM)	16 (≈ 26.8 µM)	16 (≈ 26.8 µM)	32 (≈ 53.6 µM)	32 (≈ 53.6 µM)	32 (≈ 53.6 µM)	64 (≈ 107 µM)	8 (≈ 13.4 µM)	32 (≈ 53.6 µM)	16 (≈ 26.8 µM)	16 (≈ 26.8 µM)	8 (≈ 13.4 µM)	32 (≈ 53.6 µM)	128 (≈ 215 µM)	16 (≈ 26.8 µM)	32 (≈ 53.6 µM)	128 (≈ 215 µM)	MIC [11]: 64 µg/mL (≈ 107 µM); MIC [12]: 128 µg/mL (≈ 215 µM); MIC [13]: 32 µg/mL (≈ 53.6 µM); MIC [14]: 64 µg/mL (≈ 107 µM); MIC (Serratia marcescens SE3): 32 µg/mL (≈ 53.6 µM); MIC (Serratia marcescens X99): 16 µg/mL (≈ 26.8 µM); MIC (Shigella sonnei N9): 16 µg/mL (≈ 26.8 µM); MIC [15]: 32 µg/mL (≈ 53.6 µM); MIC [16]: 64 µg/mL (≈ 107 µM); MIC [17]: 16 µg/mL (≈ 26.8 µM); MIC [18]: 128 µg/mL (≈ 215 µM); MIC [19]: 16 µg/mL (≈ 26.8 µM); MIC [20]: 8 µg/mL (≈ 13.4 µM); MIC [21]: > 128 µg/mL; MIC [22]: > 128 µg/mL; MIC [23]: 128 µg/mL (≈ 215 µM); MIC [24]: 64 µg/mL (≈ 107 µM); ED50 ([25]; challenged with 1794 LD50's): 30 mg/kg
CCNC1CC2OC(OC3OC(CO)C(N)C(O)C3O)C(NC)C(O)C2OC1OC1C(N)CC(N)C(O)C1O (stereo not drawn) [Test compound 4, 2′-N-ethylapramycin]	–	32 (≈ 56.4 µM)	16 (≈ 28.2 µM)	8 (≈ 14.1 µM)	8 (≈ 14.1 µM)	8 (≈ 14.1 µM)	32 (≈ 56.4 µM)	16 (≈ 28.2 µM)	8 (≈ 14.1 µM)	8 (≈ 14.1 µM)	2 (≈ 3.52 µM)	16 (≈ 28.2 µM)	16 (≈ 28.2 µM)	8 (≈ 14.1 µM)	4 (≈ 7.05 µM)	8 (≈ 14.1 µM)	32 (≈ 56.4 µM)	8 (≈ 14.1 µM)	8 (≈ 14.1 µM)	32 (≈ 56.4 µM)	MIC [11]: 64 µg/mL (≈ 113 µM); MIC [12]: 64 µg/mL (≈ 113 µM); MIC [13]: 16 µg/mL (≈ 28.2 µM); MIC [14]: 8 µg/mL (≈ 14.1 µM); MIC (Serratia marcescens SE3): 16 µg/mL (≈ 28.2 µM); MIC (Serratia marcescens X99): 8 µg/mL (≈ 14.1 µM); MIC (Shigella sonnei N9): 8 µg/mL (≈ 14.1 µM); MIC [15]: 8 µg/mL (≈ 14.1 µM); MIC [16]: 8 µg/mL (≈ 14.1 µM); MIC [17]: 4 µg/mL (≈ 7.05 µM); MIC [18]: 16 µg/mL (≈ 28.2 µM); MIC [19]: 8 µg/mL (≈ 14.1 µM); MIC [20]: 2 µg/mL (≈ 3.52 µM); MIC [21]: > 128 µg/mL; MIC [22]: 128 µg/mL (≈ 225 µM); MIC [23]: 16 µg/mL (≈ 28.2 µM); MIC [24]: 16 µg/mL (≈ 28.2 µM); ED50 ([25]; challenged with 68.1 LD50's): < 4.35 mg/kg
